Structures can show the parent of a compound that is named as a salt.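 1) Cells in 96-well plates. 2) Compound, 48 h, 5 concentrations. 3) Linear interpolation between surrounding doses. 4) Unreached endpoint = highest concentration. Here, GI50 denotes the concentration required for 50% inhibition of growth.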 Active and inactive are the calls of the source. No stated cut-off is given here; in the data, active = GI50 up to about 1.1 µM and inactive = higher.
How the values were obtained:
Assay in all cases: inhibition of tumour cell growth, NCI panel, 48 h
NCI-H226 = test system: NCI-H226
UACC-257 = test system: UACC-257
MDA-MB-231 = test system: MDA-MB-231
Malme-3M = test system: Malme-3M
NCI-H23 = test system: NCI-H23
UO-31 = test system: UO-31
RPMI-8226 = test system: RPMI-8226
HOP-92 = test system: HOP-92
SR = test system: SR
786-0 = test system: 786-0
BT-549 = test system: BT-549
MCF7 = test system: MCF7
NCI/ADR-RES = test system: NCI/ADR-RES
EKVX = test system: EKVX
HCC 2998 = test system: HCC 2998
PC-3 = test system: PC-3
OVCAR-3 = test system: OVCAR-3
DU-145 = test system: DU-145
T47D = test system: T47D
ACHN = test system: ACHN
MDA-N = test system: MDA-N
A549 = test system: A549
MOLT-4 = test system: MOLT-4
OVCAR-5 = test system: OVCAR-5
IGROV-1 = test system: IGROV-1
SF-268 = test system: SF-268
SN12C = test system: SN12C
OVCAR-8 = test system: OVCAR-8
HCT-15 = test system: HCT-15
LOX IMVI = test system: LOX IMVI
CAKI-1 = test system: CAKI-1
A498 = test system: A498
HCT-116 = test system: HCT-116
HL-60 = test system: HL-60
OVCAR-4 = test system: OVCAR-4
NCI-H522 = test system: NCI-H522
UACC-62 = test system: UACC-62
MDA-MB-435 = test system: MDA-MB-435
K562 = test system: K562
SK-MEL-28 = test system: SK-MEL-28
CCRF-CEM = test system: CCRF-CEM
HT-29 = test system: HT-29
SF-539 = test system: SF-539
SK-OV-3 = test system: SK-OV-3
Hs-578T = test system: Hs-578T
TK-10 = test system: TK-10
SW-620 = test system: SW-620
NCI-H460 = test system: NCI-H460
SK-MEL-5 = test system: SK-MEL-5
RXF 393 = test system: RXF 393
SF-295 = test system: SF-295
SNB-75 = test system: SNB-75
U-251 = test system: U-251
HOP-62 = test system: HOP-62
SNB-19 = test system: SNB-19
SK-MEL-2 = test system: SK-MEL-2
COLO 205 = test system: COLO 205
M14 = test system: M14
KM12 = test system: KM12

With `O=c1c2cccnc2n2n1Cc1ccccc1C2` the GI50 (NCI-H226) was > 100 µM (inactive), the GI50 (UACC-257) was > 100 µM (inactive) and the GI50 (MDA-MB-231) was > 100 µM (inactive). The GI50 (Malme-3M) was > 100 µM (inactive), the GI50 (NCI-H23) was > 100 µM (inactive) and the GI50 (UO-31) was > 100 µM (inactive). For the same compound, the GI50 (RPMI-8226) was > 100 µM (inactive), the GI50 (HOP-92) was > 100 µM (inactive) and the GI50 (SR) was > 100 µM (inactive). For the same compound, the GI50 (786-0) was > 100 µM (inactive), the GI50 (BT-549) was > 100 µM (inactive) and the GI50 (MCF7) was > 100 µM (inactive). For the same compound, the GI50 (NCI/ADR-RES) was > 100 µM (inactive), the GI50 (EKVX) was 71.3 µM (inactive) and the GI50 (HCC 2998) was > 100 µM (inactive). The GI50 (PC-3) was > 100 µM (inactive), the GI50 (OVCAR-3) was > 100 µM (inactive) and the GI50 (DU-145) was > 100 µM (inactive). The GI50 (T47D) was > 100 µM (inactive), the GI50 (ACHN) was > 100 µM (inactive) and the GI50 (MDA-N) was > 100 µM (inactive). The GI50 (A549) was > 100 µM (inactive), the GI50 (MOLT-4) was > 100 µM (inactive) and the GI50 (OVCAR-5) was > 100 µM (inactive). The GI50 (IGROV-1) was > 100 µM (inactive), the GI50 (SF-268) was > 100 µM (inactive) and the GI50 (SN12C) was > 100 µM (inactive). For the same compound, the GI50 (OVCAR-8) was > 100 µM (inactive), the GI50 (HCT-15) was over 100 µM and the GI50 (LOX IMVI) was > 100 µM (inactive). For the same compound, the GI50 (CAKI-1) was > 100 µM (inactive), the GI50 (A498) was > 100 µM (inactive) and the GI50 (HCT-116) was > 100 µM (inactive). The GI50 (HL-60) was > 100 µM (inactive), the GI50 (OVCAR-4) was > 100 µM (inactive) and the GI50 (NCI-H522) was > 100 µM (inactive). For the same compound, the GI50 (UACC-62) was > 100 µM (inactive), the GI50 (MDA-MB-435) was > 100 µM (inactive) and the GI50 (K562) was > 100 µM (inactive). For the same compound, the GI50 (SK-MEL-28) was > 100 µM (inactive), the GI50 (CCRF-CEM) was > 100 µM (inactive) and the GI50 (HT-29) was > 100 µM (inactive). The GI50 (SF-539) was > 100 µM (inactive), the GI50 (SK-OV-3) was > 100 µM (inactive) and the GI50 (Hs-578T) was > 100 µM (inactive). The GI50 (TK-10) was > 100 µM (inactive), the GI50 (SW-620) was > 100 µM (inactive) and the GI50 (NCI-H460) was > 100 µM (inactive). The GI50 (SK-MEL-5) was > 100 µM (inactive), the GI50 (RXF 393) was > 100 µM (inactive) and the GI50 (SF-295) was > 100 µM (inactive). For the same compound, the GI50 (SNB-75) was > 100 µM (inactive), the GI50 (U-251) was > 100 µM (inactive) and the GI50 (HOP-62) was > 100 µM (inactive).
For `CCc1ccc2c(c1)N(CC(C)CN(C)C)c1ccccc1S2` (stereo not given) [ETYMEMAZINE HYDROCHLORIDE], the GI50 (NCI-H226) was 9.86 µM (inactive), the GI50 (UACC-257) was 2.74 µM (inactive) and the GI50 (MDA-MB-231) was 4.89 µM (inactive). For the same compound, the GI50 (Malme-3M) was 4.11 µM (inactive), the GI50 (NCI-H23) was 7.64 µM (inactive) and the GI50 (UO-31) was 2.73 µM (inactive). The GI50 (SNB-19) was 10.6 µM (inactive), the GI50 (RPMI-8226) was 2.17 µM (inactive) and the GI50 (HOP-92) was 4.66 µM (inactive). The GI50 (SR) was 0.298 µM (active), the GI50 (786-0) was 4.7 µM (inactive) and the GI50 (BT-549) was 12.9 µM (inactive). For the same compound, the GI50 (MCF7) was 3.92 µM (inactive), the GI50 (NCI/ADR-RES) was 5.22 µM (inactive) and the GI50 (EKVX) was 11.4 µM (inactive). The GI50 (SK-MEL-2) was 5.08 µM (inactive), the GI50 (PC-3) was 4.93 µM (inactive) and the GI50 (OVCAR-3) was 4.88 µM (inactive). For the same compound, the GI50 (DU-145) was 7.91 µM (inactive), the GI50 (T47D) was 3.66 µM (inactive) and the GI50 (ACHN) was 5.21 µM (inactive). The GI50 (MDA-N) was 5.5 µM (inactive), the GI50 (A549) was 8.39 µM (inactive) and the GI50 (MOLT-4) was 0.736 µM (active). For the same compound, the GI50 (OVCAR-5) was 4.98 µM (inactive), the GI50 (IGROV-1) was 4.98 µM (inactive) and the GI50 (SF-268) was 7.5 µM (inactive). The GI50 (SN12C) was 7.21 µM (inactive), the GI50 (OVCAR-8) was 7.94 µM (inactive) and the GI50 (HCT-15) was 6.21 µM. The GI50 (LOX IMVI) was 3.54 µM (inactive), the GI50 (CAKI-1) was 5.06 µM (inactive) and the GI50 (A498) was 7.38 µM (inactive). The GI50 (HCT-116) was 3.65 µM (inactive), the GI50 (HL-60) was 2.65 µM (inactive) and the GI50 (COLO 205) was 3.29 µM (inactive). For the same compound, the GI50 (OVCAR-4) was 5.16 µM (inactive), the GI50 (NCI-H522) was 2.87 µM (inactive) and the GI50 (M14) was 2.12 µM (inactive). The GI50 (UACC-62) was 5.31 µM (inactive), the GI50 (MDA-MB-435) was 2.87 µM (inactive) and the GI50 (K562) was 0.37 µM (active). For the same compound, the GI50 (SK-MEL-28) was 2.21 µM (inactive), the GI50 (CCRF-CEM) was 2.18 µM (inactive) and the GI50 (HT-29) was 3.12 µM (inactive). The GI50 (SF-539) was 10.2 µM (inactive), the GI50 (SK-OV-3) was 6.53 µM (inactive) and the GI50 (Hs-578T) was 6.01 µM (inactive). The GI50 (KM12) was 3.61 µM (inactive), the GI50 (TK-10) was 4.81 µM (inactive) and the GI50 (SW-620) was 5.53 µM (inactive). The GI50 (NCI-H460) was 3.33 µM (inactive), the GI50 (SK-MEL-5) was 3.78 µM (inactive) and the GI50 (RXF 393) was 2.79 µM (inactive). For the same compound, the GI50 (SF-295) was 9.64 µM (inactive), the GI50 (SNB-75) was 3 µM (inactive) and the GI50 (U-251) was 5.12 µM (inactive). For the same compound, the GI50 (HOP-62) was 6.38 µM (inactive).
`CC1(C)CNC(=O)C2(/C=N/C(C)(C)CNC(=O)C3(/C=N/1)CCCO3)CCCO2` (stereo not given) was tested, and the GI50 (UACC-257) was > 10 µM (inactive), the GI50 (MDA-MB-231) was > 10 µM (inactive) and the GI50 (Malme-3M) was > 10 µM (inactive). For the same compound, the GI50 (NCI-H23) was > 10 µM (inactive), the GI50 (SNB-19) was > 10 µM (inactive) and the GI50 (RPMI-8226) was > 10 µM (inactive). The GI50 (HOP-92) was > 10 µM (inactive), the GI50 (SR) was > 10 µM (inactive) and the GI50 (786-0) was > 10 µM (inactive). For the same compound, the GI50 (BT-549) was > 10 µM (inactive), the GI50 (MCF7) was > 10 µM (inactive) and the GI50 (NCI/ADR-RES) was > 10 µM (inactive). The GI50 (EKVX) was > 10 µM (inactive), the GI50 (HCC 2998) was > 10 µM (inactive) and the GI50 (PC-3) was > 10 µM (inactive). For the same compound, the GI50 (OVCAR-3) was > 10 µM (inactive), the GI50 (DU-145) was > 10 µM (inactive) and the GI50 (T47D) was > 10 µM (inactive). For the same compound, the GI50 (ACHN) was > 10 µM (inactive), the GI50 (MDA-N) was > 10 µM (inactive) and the GI50 (A549) was > 10 µM (inactive). For the same compound, the GI50 (MOLT-4) was > 10 µM (inactive), the GI50 (IGROV-1) was > 10 µM (inactive) and the GI50 (SF-268) was > 10 µM (inactive). For the same compound, the GI50 (SN12C) was > 10 µM (inactive), the GI50 (OVCAR-8) was > 10 µM (inactive) and the GI50 (HCT-15) was over 10 µM. For the same compound, the GI50 (CAKI-1) was > 10 µM (inactive), the GI50 (A498) was > 10 µM (inactive) and the GI50 (HCT-116) was > 10 µM (inactive). For the same compound, the GI50 (HL-60) was > 10 µM (inactive), the GI50 (COLO 205) was > 10 µM (inactive) and the GI50 (OVCAR-4) was > 10 µM (inactive). For the same compound, the GI50 (NCI-H522) was > 10 µM (inactive), the GI50 (M14) was > 10 µM (inactive) and the GI50 (UACC-62) was > 10 µM (inactive). The GI50 (MDA-MB-435) was > 10 µM (inactive), the GI50 (K562) was > 10 µM (inactive) and the GI50 (SK-MEL-28) was > 10 µM (inactive). The GI50 (CCRF-CEM) was > 10 µM (inactive), the GI50 (HT-29) was > 10 µM (inactive) and the GI50 (SF-539) was > 10 µM (inactive). For the same compound, the GI50 (SK-OV-3) was > 10 µM (inactive), the GI50 (Hs-578T) was > 10 µM (inactive) and the GI50 (KM12) was > 10 µM (inactive). For the same compound, the GI50 (TK-10) was > 10 µM (inactive), the GI50 (SW-620) was > 10 µM (inactive) and the GI50 (SK-MEL-5) was > 10 µM (inactive). The GI50 (RXF 393) was > 10 µM (inactive), the GI50 (SF-295) was > 10 µM (inactive) and the GI50 (SNB-75) was > 10 µM (inactive). For the same compound, the GI50 (U-251) was > 10 µM (inactive) and the GI50 (HOP-62) was > 10 µM (inactive).

— ChEMBL document CHEMBL1201862, “PubChem BioAssay data set” (2004)
